Test system: CaV1.2
Assay: Whole-cell patch clamp of CaV1.2 variants in HEK 293T/17 cells
Format: cell-based, rat
Settings: interleaved WT, mean±SEM; for Imax Ba2+ (peak current density) / Imax Ba2+ (r300): 10 mM Ba^2+; for Imax Ba2+ (peak current density): 0 mV; for Imax Ca2+ (peak current density) / Imax Ca2+ (r300): 10 mM Ca^2+; for Imax Ca2+ (peak current density): +20 mV; for VDI300: 1-(Ba300/Bamax); for netCDI300: 1-(Ca300/Camax)/(Ba300/Bamax); for Imax Ba2+ (r300) / Imax Ca2+ (r300): fraction of maximal current remaining after 300 ms
Description: HEK 293T/17 cells (ATCC) were maintained as previously described ([15], [53]). For electrophysiology, Lipofectamine 2000 (Invitrogene) or JetPrime (Polyplus Transfection) was used to transiently transfect cells with indicated plasmid DNAs in 35 mm dishes. For biochemistry experiments, transient transfection of HEK 293T/17 cells in […] dishes was achieved using either JetPrime or, as previously described ([15], [53]), the calcium phosphate method. Cells were cotransfected with plasmids encoding the pore-forming α11.2 subunit N-terminally tagged with eCFP ([15], [53]) or mCherry ([54]) plus pGWIH-based plasmids encoding the auxiliary subunits rat β2A ([55]) and rabbit α2δ-1 ([56]) as previously described ([15], [53]). For all transfections, equimolar ratio of 1:1:1 was used for CaV1.2 channel subunits and later further optimized (JetPrime) for CaM (at ratio of 1:1:1:0.5 for α11.2:β2A:α2δ−1:CaM). Rat brain α11.2 (GenBank ID: M67515.1) N-terminally fused to eCFP was utilized as previously described ([15]). The point mutations in plasmids encoding single-residue I1654A, Y1657D (this report), and K1662E exchanges in α11.2 were generated via QuikChange II as previously described ([15], [53]) using N-terminally eCFP ([15], [53]) or mCherry tagged ([54]) rat brain α11.2 plasmid template DNAs. We studied CDI using mCherry-tagged α11.2 subunit coexpressed with the other, untagged CaV1.2 subunits and WT CaM or the calmodulin 34 mutant CaM34 (kindly provided by JP Adelman, ([8])). For some biochemical experiments shown in Fig. S2, YFP-tagged CaM was used ([32]).
Macroscopic Ba^2+- (IBa) and Ca^2+ currents (ICa) of CaV1.2 L-type Ca^2+ channels were obtained in the whole-cell configuration using external bath solution containing (in mM) 134 N-methyl-D-glucamine, 10 BaCl2 (for CDI, 10 CaCl2), 1 MgCl2, 10 Hepes, and 10 glucose with an adjusted pH of 7.4 (Cs-OH) and an osmolarity of 300 to 310 mOsm (sucrose). Intracellular pipette solution contained (in mM) 125 Cs-MeSO3, 5 CsCl, 10 EGTA, 10 Hepes, 1 MgCl2, 4 Mg-ATP, and pH 7.3 (CsOH), mOsm 290 to 300 (sucrose). Cells were clamped at a holding potential of -80 mV and depolarized for 900 ms to a series of activating potentials, from −60 mV to +50 mV (or +80 mV for Ca^2+ currents), in increments of 10 mV at an interval of 0.033 Hz. The series resistance and the cell capacitance were directly taken from the Amplifier (Axopatch 200B, Molecular Device) and compensated to ∼40%. Data were sampled at 10 kHz and lowpass filtered at 2 kHz. Leak subtracted raw data were analyzed with Pclamp10 and GraphPad Prism IX software. All recordings were performed at room temperature (RT).
Table S1. HEK 293T/17 cells were transiently transfected with eCFP-tagged rat CaV1.2 (WT versus I1654A and K1662E or versus Y1657D) plus α2δ1 and β2a and whole cell current recorded (see Fig. 3 for more details).
Panel A. Peak current density from I/V curves of whole-cell recordings. Imax values were determined at +20 mV for Ca2+ and 0 mV for Ba2+.
Panel B. r300 values and quantification of CDI and VDI. Whole-cell currents remaining after 300 ms of depolarization (r300) are given as fraction of maximal currents based on values in A. Net CDI was calculated as the ratiometric value net 1-(Ca300/Camax)/(Ba300/Bamax) and VDI as 1- […]
For each panel: Top: Analysis of interleaved recordings of CaV1.2 WT versus I1654A and K1662E IQ- mutants (one-way ANOVA with a Bonferroni post-hoc test; *p<0.05, **p<0.01 and ***p<0.001 and ****p<0.0001). Bottom: Analysis of interleaved recordings of CaV1.2 WT versus Y1657D IQ-mutant CaV1.2 (unpaired T-Test, *p<0.05 and ****p<0.0001). […]
mean±SEM and numbers in parentheses (n) are independent experiments.
IQ-variant ImaxCa2+(pA/pF) ImaxBa2+(pA/pF) p-value

CaV1.2: WT rat brain α11.2 with α2δ1 and β2A expressed in HEK 293T/17 cells
Imax Ba2+ (peak current density) (I1654A, K1662E): 46.7±9.1 pA/pF
Imax Ba2+ (peak current density) (Y1657D): 21.8±4 pA/pF
Imax Ca2+ (peak current density) (I1654A, K1662E): 18.3±4.2 pA/pF
Imax Ca2+ (peak current density) (Y1657D): 16.4±2.1 pA/pF
VDI300 (I1654A, K1662E): 0.19±0.02
VDI300 (Y1657D): 0.17±0.02
netCDI300 (I1654A, K1662E): 0.59±0.04
netCDI300 (Y1657D): 0.61±0.03
Imax Ba2+ (r300) (I1654A, K1662E): 0.81±0.02
Imax Ba2+ (r300) (Y1657D): 0.83±0.02
Imax Ca2+ (r300) (I1654A, K1662E): 0.33±0.03
Imax Ca2+ (r300) (Y1657D): 0.32±0.03
